Results taken from patent US20220010310A1, “An lncRNA integrates a DNA-PK-mediated DNA damage response and vascular senescence” (The Brigham and Women`s Hospital, Inc., priority 2018, published 2022).

B1: Deletion of domain-4: biotinylated SNHG12 construct with predicted secondary-structure domain 4 deleted (nucleic acid, listed as Homo sapiens)
chain: TGCAAGCCTCTGCCTGCCTTCCTGCGCGCCGTTCCCCGCTAGTCGCTGCTGCTGGCGCGCACTCGCCGGGTTTTTCCTCCCACGGCCTCGAGATGGTGGTGAATGTGGCACGGAGGAGCCGGGCCTTCCAACCCGGTGGGCCCGAGCTCCGAAAGGCCCCCTCGGCAGTGAGAGGGGCGGGAGCCCGCGGGGGCCGCGCCCTTCTCTCGCTTCGGACTGCGCAACGCTGCGCTCTGGGCTGACAGGCGGATAAAACGGTCCCATCAAGACTGAGAAAAAGCACACCAGCTATTGGCACAGCGTGGGCAGTGGGGCCTACAGGATGACTGACTTAGTCTACAGAGATCCCGGCGTACTTAAGCAGATGAAGACTCTTAAGATGACAGAAGGTGATTTTTCTGGTGATCGAGGACTTCCGGGGTAATGACAGTGATGAAATGCAGGGGACCTGGTTGCCCCCAAGTTTCCTGGCAGTGTGTGATACTGAGGAGGTGAGCTTGTTTCTGGAGCTGTGCTTTAAGGTAAAGTTGATCAGCTTAATCCTCCTGATCCCTTTCCCA
modifications: biotin
notes: biotinylated SNHG12 construct with predicted secondary-structure domain 4 deleted

Columns and labels:
LDLR−/− mice = assay: NR rescue of SNHG12-gapmeR accelerated atherosclerosis in LDLR−/− mice; assay type: in vivo, mouse
Procedure: FIGS. 5A-G. NR rescued progression of atherosclerotic lesions in LDLR^−/− mice induced by SNHG12 silencing. (A) LDLR^−/− mice were i.v. injected with vehicle control or SNHG12-gapmeR (7.5 mg/kg/mouse) twice per week and placed on an HCD containing NR (400 mg/kg/day) for 12 weeks (n=12 per group). (B) Lesion areas were quantified using ORO area on aortic sinus sections (n=10 per group). Fold change was calculated compared to groups from study 1 as described in FIG. 1. P value was determined by Student's t test. (C) Lesional DNA damage in the vascular endothelium of the aortic arch was quantified in LDLR^−/− mice by γH2AX with nuclear co-localization with DAPI in CD31^+ cells compared to study 1. RT-qPCR analysis for (D) SNHG12 and (E) markers of senescence p16, p21, and p27 from RNA isolated of the aortic intima of mice placed on HCD containing NR (n=6 per group). P value was determined by Student's t test. (F) Acellular areas were measured in the aortic sinus for each of the indicated groups (n=6 per group; 2-3 lesion per mice). (G) TUNEL staining was quantified in the aortic sinus for each of the indicated groups (n=7 per group). P value was determined by Student's t test. For all panels, values are mean±SD; *p<0.05, **p<0.01; ***p<0.001; ****p<0.0001.
Furthermore, administration of the NAD^+ precursor NR can limit DNA damage. […] To assess whether SNHG12-deficient lesion progression involves increased DNA damage, SNHG12-gapmeR was delivered i.v. as described in (FIG. 1F) and the HCD was supplemented with NR (400 mg/kg/day) (FIG. 5A). […] Moreover, NR administration abrogated the SNHG12-gapmeR mediated effect on increased γH2AX foci in lesional ECs in the aortic arch (FIG. 5C). Consistent with less DNA damage, the induction of the senescence markers p16, p21, and p27 fell in the presence of NR compared to LDLR^−/− mice treated with SNHG12-gapmeRs without NR (FIGS. 5D, 5E). […] Taken together, the rescue effects mediated by NR strongly support the findings that the lncRNA SNHG12 regulates the DDR both in vitro and in vivo.

HUVECs = assay: Mitochondrial stress (Seahorse OCR/ECAR, NAD+/NADH) in gapmeR-transfected HUVECs; assay type: cell-based, human
Procedure: FIGS. 13A-D. Accumulating DNA damage and its effect on mitochondrial stress. (A) Oxidative consumption rate (OCR) and extracellular acidification rate (ECAR). The bars from left to right represent control, control+NR, SNHG12 KD, and SNHG12 KD+NR, respectively. (B) in HUVECs transfected with the indicated gapmeRs in the absence or presence of NR (500 μM, 24 hrs) (n=3). P value was determined by one-way analysis of variance (ANOVA) (Fisher's test). The bars from left to right represent control, control+NR, SNHG12 KD, and SNHG12 KD+NR, respectively. (C) SNHG12 expression or (D) ratio of NAD+ to […] in gapmeR-transfected HUVECs in the absence or presence of NR (n=3). P value was determined by Student's t test. For all panels, values are mean±SD; *p<0.05, **p<0.01; ***p<0.001; ****p<0.0001.
Mitochondrial dysfunction is a hallmark of senescence and reparative responses during oxidative insults requires effective energy metabolism. Oxidative stress-induced DNA damage activates NAD+ consumption pathways (31). Examination of the effect of SNHG12 knockdown on key mitochondrial activities such as mitochondrial respiration and glycolysis in ECs used Seahorse analyses. Loss of SNHG12 decreased the extracellular acidification rate (ECAR) and oxygen consumption rate (OCR) of live cells (FIGS. 13A, 13B). […]

DNA-PK = molecular target: T1, DNA-PK (Homo sapiens, UniProt P78527); assay: lncRNA pulldown of biotinylated SNHG12 domain deletion constructs; assay type: binding; details: pulldown with HUVEC nuclear protein lysate
T1 construct: lncRNA pulldown using nuclear protein extract from HUVECs; endogenous in cells; host or cells: HUVEC nuclear protein lysate
Description: (A) Proteins identified in pulldowns of biotinylated SNHG12; DNA-PK bound specifically to SNHG12 compared to negative control LacZ (n=2, two technical replicates each). (B) Immunoblotting for DNA-PK, ATM, ATR, Ku80, Ku70, p53, and control on nuclear protein lysate from HUVECs after lncRNA pulldown (n=5). (C) Analysis after streptavidin pulldown of nuclear protein lysate derived from the aorta of C57B1/6 mice following two i.v. injections of biotin-labeled SNHG12 compared to LacZ (n=4 per group). (D, E) Predicted secondary structure of SNHG12 with indicated deletions of domains 1˜4 used for subsequent lncRNA pulldown of biotinylated SNHG12 domain deletion constructs (n=4). P value was determined by one-way analysis of variance (ANOVA) (Fisher's test). (F) IP for DNA-PK following RNA isolation and subsequent RT-qPCR for SNHG12 and for negative control HPRT (n=5). […] Immunoblotting for Ku70, Ku80 and DNA-PK and (H) quantification under H2O2 conditions (n=3). […]
To identify potential SNHG12-interacting proteins that may inform mechanisms underlying these findings, biotin-labeled T7 in vitro transcribed SNHG12 or LacZ was incubated with nuclear protein lysate of HUVECs (FIG. 9A). […] Furthermore, biophysical studies determined the equilibrium dissociation constant (KD) for the SNHG12-DNA-PK interaction (1.318E-07 μM) (FIG. 9E). […]

T1 sequence (P78527 whole entry, the tested form may be a part): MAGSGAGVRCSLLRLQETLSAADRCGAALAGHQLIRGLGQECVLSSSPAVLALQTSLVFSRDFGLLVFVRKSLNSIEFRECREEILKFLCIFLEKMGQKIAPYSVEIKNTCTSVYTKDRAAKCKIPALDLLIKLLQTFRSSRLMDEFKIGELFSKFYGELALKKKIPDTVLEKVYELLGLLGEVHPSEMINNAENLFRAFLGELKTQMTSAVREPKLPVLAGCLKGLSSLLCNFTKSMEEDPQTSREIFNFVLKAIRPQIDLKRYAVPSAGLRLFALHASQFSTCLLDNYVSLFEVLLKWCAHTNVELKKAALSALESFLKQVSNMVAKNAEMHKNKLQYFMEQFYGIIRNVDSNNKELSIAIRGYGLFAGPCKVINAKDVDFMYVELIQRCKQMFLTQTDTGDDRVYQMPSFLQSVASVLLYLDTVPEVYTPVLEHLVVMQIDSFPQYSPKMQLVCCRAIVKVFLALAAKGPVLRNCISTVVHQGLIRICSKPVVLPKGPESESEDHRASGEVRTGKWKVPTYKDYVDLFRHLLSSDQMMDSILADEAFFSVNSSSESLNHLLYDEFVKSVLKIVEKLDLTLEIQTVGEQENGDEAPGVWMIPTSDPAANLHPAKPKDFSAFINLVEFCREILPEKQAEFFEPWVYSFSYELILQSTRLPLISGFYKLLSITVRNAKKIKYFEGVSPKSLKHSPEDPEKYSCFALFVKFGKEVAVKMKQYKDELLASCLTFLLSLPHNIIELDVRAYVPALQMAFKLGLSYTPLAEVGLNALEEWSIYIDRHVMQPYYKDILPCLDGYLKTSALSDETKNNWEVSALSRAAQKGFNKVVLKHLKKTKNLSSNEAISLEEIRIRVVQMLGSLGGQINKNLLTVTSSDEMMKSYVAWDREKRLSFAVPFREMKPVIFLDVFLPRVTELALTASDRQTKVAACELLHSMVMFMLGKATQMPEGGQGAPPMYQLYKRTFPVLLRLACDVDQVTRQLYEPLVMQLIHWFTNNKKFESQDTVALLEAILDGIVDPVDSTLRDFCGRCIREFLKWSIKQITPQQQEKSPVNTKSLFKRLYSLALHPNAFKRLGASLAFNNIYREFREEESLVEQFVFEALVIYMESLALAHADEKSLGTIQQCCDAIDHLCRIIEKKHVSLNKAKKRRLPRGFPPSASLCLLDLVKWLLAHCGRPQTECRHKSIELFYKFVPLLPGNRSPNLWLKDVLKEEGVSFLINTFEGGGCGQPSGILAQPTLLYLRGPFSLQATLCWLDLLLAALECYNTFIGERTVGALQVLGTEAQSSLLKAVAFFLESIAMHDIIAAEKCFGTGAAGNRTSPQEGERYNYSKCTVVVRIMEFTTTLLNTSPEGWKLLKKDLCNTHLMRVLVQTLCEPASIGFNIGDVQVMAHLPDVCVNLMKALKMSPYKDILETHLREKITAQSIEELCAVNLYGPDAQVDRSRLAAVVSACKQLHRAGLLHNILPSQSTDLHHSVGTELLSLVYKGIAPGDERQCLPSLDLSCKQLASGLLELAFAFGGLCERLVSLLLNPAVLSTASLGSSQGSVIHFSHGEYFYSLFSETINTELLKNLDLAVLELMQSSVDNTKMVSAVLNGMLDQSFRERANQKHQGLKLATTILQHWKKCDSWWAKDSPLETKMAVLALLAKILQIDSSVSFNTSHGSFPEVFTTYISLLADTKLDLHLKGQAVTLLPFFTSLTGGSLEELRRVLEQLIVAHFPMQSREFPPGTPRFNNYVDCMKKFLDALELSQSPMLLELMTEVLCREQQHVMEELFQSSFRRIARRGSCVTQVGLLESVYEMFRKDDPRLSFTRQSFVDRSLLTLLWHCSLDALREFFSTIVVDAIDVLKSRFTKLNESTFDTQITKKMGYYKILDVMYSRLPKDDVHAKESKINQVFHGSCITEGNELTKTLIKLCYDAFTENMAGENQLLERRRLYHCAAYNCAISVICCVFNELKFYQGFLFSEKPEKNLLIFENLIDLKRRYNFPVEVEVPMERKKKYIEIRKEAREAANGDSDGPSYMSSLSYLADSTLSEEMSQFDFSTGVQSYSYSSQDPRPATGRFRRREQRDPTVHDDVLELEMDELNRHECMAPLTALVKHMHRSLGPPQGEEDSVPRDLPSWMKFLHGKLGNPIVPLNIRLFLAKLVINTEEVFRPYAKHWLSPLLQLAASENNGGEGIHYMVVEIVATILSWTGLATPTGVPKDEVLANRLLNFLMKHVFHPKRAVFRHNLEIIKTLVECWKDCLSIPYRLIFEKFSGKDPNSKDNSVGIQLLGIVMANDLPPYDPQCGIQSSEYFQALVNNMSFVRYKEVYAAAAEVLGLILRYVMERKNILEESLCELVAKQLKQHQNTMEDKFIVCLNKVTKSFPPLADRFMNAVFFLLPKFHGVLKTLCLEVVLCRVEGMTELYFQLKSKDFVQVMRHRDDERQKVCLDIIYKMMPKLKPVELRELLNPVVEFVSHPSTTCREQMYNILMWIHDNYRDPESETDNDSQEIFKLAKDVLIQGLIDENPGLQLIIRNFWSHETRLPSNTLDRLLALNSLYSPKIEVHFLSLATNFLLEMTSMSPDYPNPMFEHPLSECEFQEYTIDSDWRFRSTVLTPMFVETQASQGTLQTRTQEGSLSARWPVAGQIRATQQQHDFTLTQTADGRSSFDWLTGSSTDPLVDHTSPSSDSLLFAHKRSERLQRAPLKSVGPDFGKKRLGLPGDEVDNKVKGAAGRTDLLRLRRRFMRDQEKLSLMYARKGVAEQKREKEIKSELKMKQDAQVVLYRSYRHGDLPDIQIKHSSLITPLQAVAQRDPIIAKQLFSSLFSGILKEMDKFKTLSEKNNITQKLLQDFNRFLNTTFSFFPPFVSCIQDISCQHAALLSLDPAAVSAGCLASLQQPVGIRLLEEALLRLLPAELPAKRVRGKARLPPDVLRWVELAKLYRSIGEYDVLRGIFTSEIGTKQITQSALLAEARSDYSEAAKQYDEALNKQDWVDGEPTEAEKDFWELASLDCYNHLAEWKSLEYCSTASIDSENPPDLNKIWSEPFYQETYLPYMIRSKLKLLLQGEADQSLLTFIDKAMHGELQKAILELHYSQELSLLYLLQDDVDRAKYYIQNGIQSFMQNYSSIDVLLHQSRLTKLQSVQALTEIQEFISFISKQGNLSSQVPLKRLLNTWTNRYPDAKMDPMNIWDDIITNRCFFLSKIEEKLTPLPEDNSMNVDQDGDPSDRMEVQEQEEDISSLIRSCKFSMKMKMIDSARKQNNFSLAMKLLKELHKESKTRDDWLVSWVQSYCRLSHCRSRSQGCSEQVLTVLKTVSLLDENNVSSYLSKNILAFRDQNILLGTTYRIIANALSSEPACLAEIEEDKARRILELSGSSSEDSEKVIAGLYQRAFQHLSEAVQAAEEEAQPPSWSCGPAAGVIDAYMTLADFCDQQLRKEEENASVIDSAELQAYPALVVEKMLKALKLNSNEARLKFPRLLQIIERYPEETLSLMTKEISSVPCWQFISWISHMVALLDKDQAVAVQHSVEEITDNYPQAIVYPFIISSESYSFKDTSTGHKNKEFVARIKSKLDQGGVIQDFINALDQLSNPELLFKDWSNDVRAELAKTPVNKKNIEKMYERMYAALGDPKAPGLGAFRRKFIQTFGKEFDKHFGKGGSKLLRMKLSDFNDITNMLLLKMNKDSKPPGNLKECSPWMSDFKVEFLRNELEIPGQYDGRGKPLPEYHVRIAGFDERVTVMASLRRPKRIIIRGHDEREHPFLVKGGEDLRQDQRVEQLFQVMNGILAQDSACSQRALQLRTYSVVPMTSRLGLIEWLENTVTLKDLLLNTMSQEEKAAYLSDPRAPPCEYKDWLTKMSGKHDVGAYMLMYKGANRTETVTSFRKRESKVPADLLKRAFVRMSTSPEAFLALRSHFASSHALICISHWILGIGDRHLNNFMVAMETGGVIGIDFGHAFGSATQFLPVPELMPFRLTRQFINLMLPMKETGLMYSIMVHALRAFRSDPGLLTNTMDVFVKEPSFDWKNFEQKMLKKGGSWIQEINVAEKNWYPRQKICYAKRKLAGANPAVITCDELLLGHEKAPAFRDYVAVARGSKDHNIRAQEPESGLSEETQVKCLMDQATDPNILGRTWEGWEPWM

Molecule | increase in lesion areas by ORO between SNHG12-gapmeR and control-gapmeR groups on NR (LDLR−/− mice; HCD with NR 400 mg/kg/day, 12 weeks, P=0.1729) | SNHG12-gapmeR mediated increase of γH2AX foci in lesional ECs in the aortic arch (LDLR−/− mice; NR 400 mg/kg/day, 12 weeks) | induction of senescence markers p16, p21, and p27 compared to SNHG12-gapmeR without NR (LDLR−/− mice; aortic intima, NR 400 mg/kg/day) | TUNEL positive cells compared to groups without NR (LDLR−/− mice; aortic sinus, NR 400 mg/kg/day) | differences in plaque necrosis (LDLR−/− mice; aortic sinus, NR 400 mg/kg/day) | SNHG12 expression (HUVECs; NR 500 μM, 24 hrs) | NAD+/NADH ratio (HUVECs; gapmeR-transfected HUVECs, absence or presence of NR) | reduction of DNA-PK binding (DNA-PK)
NC(=O)c1ccc[n+]([C@@H]2O[C@H](CO)[C@@H](O)[C@H]2O)c1 [NR, Nicotinamide Riboside] | no significant | abrogated | fell | reduced | eliminated differences | did not affect | partially rescued | –
B1 | – | – | – | – | – | – | – | ~50%
